From PubChem BioAssay (NCI)
Where “and” joins values, the source holds several entries; their conditions need not be identical. Equal entries are not always repeated.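 Cultured in 96-well plates, cells were exposed to test compound for 48 hours across five concentrations. GI50 marks 50% less growth. TGI: total growth inhibition.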

How the values were obtained:
Test in all cases: NCI-60 cell line screen, 48 h
SNB-19 CNS = system: SNB-19 CNS
SF-295 CNS = system: SF-295 CNS
MDA-MB-435 = system: MDA-MB-435
CCRF-CEM leukemia = system: CCRF-CEM leukemia
OVCAR-3 ovarian = system: OVCAR-3 ovarian
CAKI-1 renal = system: CAKI-1 renal
OVCAR-4 ovarian = system: OVCAR-4 ovarian
IGROV1 ovarian = system: IGROV1 ovarian
SF-539 CNS = system: SF-539 CNS
UO-31 renal = system: UO-31 renal

SMILES	TGI (SNB-19 CNS)	TGI (SF-295 CNS)	TGI (MDA-MB-435) [µM]	TGI (CCRF-CEM leukemia)	TGI (OVCAR-3 ovarian)	TGI (CAKI-1 renal)	TGI (OVCAR-4 ovarian)	TGI (IGROV1 ovarian)	TGI (SF-539 CNS) [µM]	TGI (UO-31 renal)	GI50 (SNB-19 CNS) [µM]	GI50 (SF-295 CNS) [µM]	GI50 (MDA-MB-435) [µM]	GI50 (CCRF-CEM leukemia) [µM]	GI50 (OVCAR-3 ovarian) [µM]	GI50 (CAKI-1 renal)	GI50 (OVCAR-4 ovarian) [µM]	GI50 (IGROV1 ovarian) [µM]	GI50 (SF-539 CNS) [µM]	GI50 (UO-31 renal) [µM]
CC(C)CC(NC(=O)OC(C)(C)C)C(=O)Nc1ccc(Nc2nc(F)nc(-c3c4ccccc4cn3C)n2)cc1 (centres undefined)	> 100 µM	> 100 µM	> 100	> 100 µM	63 µM	> 100 µM	> 100 µM	> 100 µM	> 100	> 100 µM										
O=C1CCc2c(sc3[nH]c(=S)n(Cc4ccc(Cl)cc4)c(=O)c23)C1	> 100 µM	4.68 µM	8.33	> 100 µM	> 55.6 µM		28.2 µM	> 100 µM	1.63	1.21 µM	0.385	0.863	1.44	0.479	0.385	0.451 µM	0.388	0.454	0.356	0.277
O=C1C(Cl)=C(NCc2ccco2)C(=O)c2ccccc21	> 100 µM	41.6 µM	3.89	> 100 µM	19.4 µM	> 100 µM	19.2 µM	44 µM	54	> 100 µM	24.3	8.24	2.06	9.88	4.93	58.1 µM	6.91	10.9	20.9	38.5
CCOC(=O)c1c2c(n3ccccc13)C(=O)c1ncccc1C2=O	13.7 µM	11.3 µM	16.4	> 100 µM	0.945 µM	28.5 µM	12.3 µM	42.7 µM	1.96	3.79 µM	0.0587	1.31	0.194	3.06	0.03	0.301 µM	0.687	0.0987	0.111	0.0338
NCCCNCCCCNC(=O)C(O)NC(=O)CCCCCCN=C(N)N (centres undefined)	750 µM and > 4430 µM	608 µM and > 4710 µM	> 3760	750 µM and > 3570 µM	750 µM and > 5000 µM	710 µM and > 5000 µM	619 µM and > 2810 µM	750 µM and > 5000 µM	> 5000	619 µM and > 5000 µM	2080	1400	1960	1320	1750	540 µM and > 3340 µM	2490	2620	> 4070	2980
Cc1cc(C)c(-n2c(-c3ccc(Br)cc3)cs/c2=N\N=C2C=C(C(C)(C)C)C(=O)C(C(C)(C)C)=C2)c(C)c1	> 100 µM	> 100 µM	> 100	> 100 µM	> 100 µM	> 100 µM	> 100 µM	> 100 µM	> 100	> 100 µM										
O=C1c2ccccc2S(=O)(=O)c2cc(-c3nn[nH]n3)ccc21	> 100 µM	> 100 µM	> 100	> 100 µM	> 100 µM	> 100 µM	> 100 µM	> 100 µM	> 100	> 100 µM										
CCN1CCN(CC(=O)N2c3cccc4cccc(c34)N(C(=O)CN3CCN(CC)CC3)C2c2cn(-c3ccccc3)nc2-c2cccc([N+](=O)[O-])c2)CC1	3.42 µM	3.44 µM	3.54	3.51 µM	3.24 µM	2.9 µM	3.71 µM	3.28 µM	2.94	2.73 µM	1.66	1.84	1.86	1.15	1.63	1.4 µM	1.79	1.62	1.56	1.34
